PubChem BioAssay (NCI)
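96-well plates; 48 h exposure; 5 concentrations. Endpoints by linear interpolation between flanking doses. Not reached: highest tested concentration assigned. At the TGI there is no net growth.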

Experiments:
Assay in all cases: NCI anticancer screen, dose series, 48 h
[1] = system: SK-OV-3 ovarian
[2] = system: HCC-2998 colon
[3] = system: 786-0 renal
[4] = system: OVCAR-4 ovarian
[5] = system: SK-MEL-2 melanoma
[6] = system: UACC-257 melanoma
[7] = system: SR leukemia
[8] = system: NCI/ADR-RES ovarian
[9] = system: HCT-116 colon
[10] = system: COLO 205 colon
[11] = system: T-47D breast
[12] = system: CCRF-CEM leukemia
[13] = system: OVCAR-8 ovarian
[14] = system: NCI-H460 lung
[15] = system: SF-295 CNS
[16] = system: KM12 colon
[17] = system: SK-MEL-28 melanoma
[18] = system: HOP-62 NSCLC
[19] = system: SNB-19 CNS
[20] = system: SNB-75 CNS
[21] = system: HOP-92 NSCLC
[22] = system: UO-31 renal
[23] = system: DU-145 prostate
[24] = system: RXF 393 renal
[25] = system: K-562 leukemia
[26] = system: A498 renal
[27] = system: MOLT-4 leukemia
[28] = system: MDA-MB-435
[29] = system: RPMI-8226 leukemia
[30] = system: CAKI-1 renal
[31] = system: LOX IMVI melanoma
[32] = system: NCI-H226 lung
[33] = system: SF-268 CNS
[34] = system: PC-3 prostate
[35] = system: EKVX NSCLC
[36] = system: TK-10 renal
[37] = system: SK-MEL-5 melanoma
[38] = system: BT-549 breast
[39] = system: HT29 colon
[40] = system: HS 578T breast
[41] = system: U251 CNS
[42] = system: SW-620 colon
[43] = system: HL-60(TB) leukemia
[44] = system: ACHN renal
[45] = system: UACC-62 melanoma
[46] = system: HCT-15 colon
[47] = system: IGROV1 ovarian
[48] = system: MDA-MB-231 breast
[49] = system: NCI-H23 lung

Measured: TGI

COc1ccc(NC(=O)C2=C(SC)C(=O)N=C2N)cc1
> 100 µM: all assays above
